KR20130112248A, “피라졸로피리미딘 유도체 화합물, 이를 포함하는 산화질소 생성 억제용 조성물 및 뇌신경 질환 예방 및 치료용 약학적 조성물” (한국과학기술연구원, priority 2012, dated 2013)

Each compound was assayed on NO production in BV-2 cells [NO 생성; BV-2 세포] (assay: Nitric oxide (NO) quantification (nitrite, Griess reaction) in LPS-activated BV-2 cells). Conditions: 20 μM, LPS 0.2 ㎍/mL, 24 h co-treatment, nitrite by Griess at 540 nm, 1440 min.
Type: cell-based

`CSc1nc(NC(C)c2ccccc2)c2cnn(Cc3ccccc3)c2n1` (stereo not drawn) [화합물 16k, 1-벤질-6-(메틸티오)-N-(1-페닐에틸)-1H-피라졸로[3,4-d]피리미딘-4-아민] was tested, and the “NO (% of LPS)” value was 31±0.5 % of LPS.

Same assay, conditions: Mus musculus, BV-2, 24 h, 20 μM, LPS 0.2 ㎍/mL, 24 h co-treatment, nitrite by Griess at 540 nm

Point of comparison: `CSc1nc(N[C@H](C)C2CCCCC2)c2cnn(-c3ccccc3)c2n1` [화합물 15r, (R)-1-페닐-4-(1-사이클로헥실에틸)아미노-6-(메틸티오)피라졸로[3,4-d]피리미딘], activity at 20 µM 41 ± 1%. Against it:
- CSc1nc(N[C@H](C)c2ccccc2)c2cnn(-c3ccccc3)c2n1 [화합물 15h, (R)-1-페닐-4-(1-페닐에틸)아미노-6-(메틸티오)피라졸로[3,4-d]피리미딘] — lower, 29 ± 4.6%
- CSc1nc(N(CCO)CCO)c2cnn(-c3ccccc3)c2n1 [화합물 15i, 1-페닐-4-비스(1-하이드록시에틸)아미노-6-(메틸티오)피라졸로[3,4-d]피리미딘] — higher, 90 ± 3%
- CSc1nc(NCc2ccccn2)c2cnn(-c3ccccc3)c2n1 [화합물 15j, 1-페닐-4-[(피리딘-2-일)메틸]아미노-6-(메틸티오)피라졸로[3,4-d]피리미딘] — within error, 30 ± 14%
- CSc1nc(NC(C)(C)CO)c2cnn(-c3ccccc3)c2n1 [화합물 15k, 1-페닐-4-[(1-하이드록시-2,2-다이메틸)에틸]아미노-6-(메틸티오)피라졸로[3,4-d]피리미딘] — higher, 70 ± 3%
- COc1cccc(CNc2nc(SC)nc3c2cnn3-c2ccccc2)c1 [화합물 15l, 1-페닐-4-(3-메톡시벤질)아미노-6-(메틸티오)피라졸로[3,4-d]피리미딘] — within error, 50 ± 9%
- CSc1nc(N2CCCCC2)c2cnn(-c3ccccc3)c2n1 [화합물 15m, 1-페닐-4-피페리디노-6-(메틸티오)피라졸로[3,4-d]피리미딘] — higher, 92 ± 4%
- CSc1nc(NCc2ccc(Cl)cc2)c2cnn(-c3ccccc3)c2n1 [화합물 15n, 1-페닐-4-(4-클로로벤질)아미노-6-(메틸티오)피라졸로[3,4-d]피리미딘] — higher, 63 ± 6%
- CSc1nc(NCc2ccccc2C)c2cnn(-c3ccccc3)c2n1 [화합물 15o, 1-페닐-4-(2-메틸벤질)아미노-6-(메틸티오)피라졸로[3,4-d]피리미딘] — higher, 57 ± 1%
- CSc1nc(NCc2ccc(C)cc2)c2cnn(-c3ccccc3)c2n1 [화합물 15p, 1-페닐-4-(4-메틸벤질)아미노-6-(메틸티오)피라졸로[3,4-d]피리미딘] — higher, 71 ± 5%
- CSc1nc(NC2CCCCC2)c2cnn(-c3ccccc3)c2n1 [화합물 15q, 1-페닐-4-사이클로헥실아미노-6-(메틸티오)피라졸로[3,4-d]피리미딘] — higher, 54 ± 1%
- COc1nc(SC)nc2c1cnn2-c1ccccc1 [화합물 15s, 1-페닐-4-메톡시-6-(메틸티오)피라졸로[3,4-d]피리미딘] — higher, 93 ± 2%
- CCCCNc1nc(SC)nc2c1cnn2-c1ccccc1 [화합물 15t, 1-페닐-4-n-뷰틸아미노-6-(메틸티오)피라졸로[3,4-d]피리미딘] — within error, 48 ± 8%
- CSc1nc(N2CCN(C)CC2)c2cnn(-c3ccccc3)c2n1 [화합물 15u, 1-페닐-4-(4-메틸)피페라지노-6-(메틸티오)피라졸로[3,4-d]피리미딘] — higher, 64%
- COc1ccccc1CNc1nc(SC)nc2c1cnn2-c1ccccc1 [화합물 15v, 1-페닐-4-(2-메톡시벤질)아미노-6-(메틸티오)피라졸로[3,4-d]피리미딘] — the same, 41 ± 2%
- CCN(CC)c1nc(SC)nc2c1cnn2-c1ccccc1 [화합물 15w, 1-페닐-4-다이에틸아미노-6-(메틸티오)피라졸로[3,4-d]피리미딘] — higher, 79 ± 3%
- CSc1nc(Sc2ccc(C)cc2)c2cnn(-c3ccccc3)c2n1 [화합물 15y, 4-(p-톨릴티오)-6-(메틸티오)-1-페닐-1H-피라졸로[3,4-d]피리미딘] — higher, 85 ± 2.3%
- CSc1nc(NC(c2ccccc2)c2ccc(Cl)cc2)c2cnn(-c3ccccc3)c2n1 (stereo not drawn) [화합물 15z, N-((4-클로로페닐)(페닐)메틸)-6-(메틸티오)-1-페닐-1H-피라졸로[3,4-d]피리미딘-4-아민] — higher, 46 ± 0.6%
- CSc1nc(NC(C)C2CCCCC2)c2cnn(-c3ccccc3)c2n1 (stereo not drawn) [화합물 15za, N-(1-사이클로헥실에틸)-6-(메틸티오)-1-페닐-1H-피라졸로[3,4-d]피리미딘-4-아민] — lower, 36 ± 0.7%
- CSc1nc(NC(C)c2ccc(C)cc2)c2cnn(-c3ccccc3)c2n1 (stereo not drawn) [화합물 15zb, 6-(메틸티오)-1-페닐-N-(1-p-톨릴에틸)-1H-피라졸로[3,4-d]피리미딘-4-아민] — higher, 51 ± 0.1%
- COc1ccc([C@H](C)Nc2nc(SC)nc3c2cnn3-c2ccccc2)cc1 [화합물 15zc, N-((S)-1-(4-메톡시페닐)에틸)-6-(메틸티오))-1-페닐-1H-피라졸로[3,4-d]피리미딘-4-아민] — within error, 42 ± 0.9%
- CSc1nc(NCc2ccccc2)c2cnn(Cc3ccccc3)c2n1 [화합물 16a, 1-벤질-4-벤질아미노-6-(메틸티오)피라졸로[3,4-d]피리미딘] — lower, 35 ± 0.5%
- CSc1nc(NCc2ccc(F)cc2)c2cnn(Cc3ccccc3)c2n1 [화합물 16c, 1-벤질-4-(4-플루오로벤질)아미노-6-(메틸티오)피라졸로[3,4-d]피리미딘] — lower, 32.3 ± 3%
- CSc1nc(NCCc2ccccc2)c2cnn(Cc3ccccc3)c2n1 [화합물 16d, 1-벤질-4-(2-페닐에틸)아미노-6-(메틸티오)피라졸로[3,4-d]피리미딘] — higher, 54 ± 1%
- CSc1nc(N[C@H](C)c2ccccc2)c2cnn(Cc3ccccc3)c2n1 [화합물 16e, (R)-1-벤질-4-(1-페닐에틸)아미노-6-(메틸티오)피라졸로[3,4-d]피리미딘] — within error, 36 ± 4%
- CSc1nc(NCc2ccccc2C)c2cnn(Cc3ccccc3)c2n1 [화합물 16f, 1-벤질-4-(2-메틸벤질)아미노-6-(메틸티오)피라졸로[3,4-d]피리미딘] — within error, 35 ± 6%
- COc1ccc(CNc2nc(SC)nc3c2cnn3Cc2ccccc2)cc1 [화합물 16g, 1-벤질-4-(4-메톡시벤질)아미노-6-(메틸티오)피라졸로[3,4-d]피리미딘] — within error, 37 ± 6%
- C=CCNc1nc(SC)nc2c1cnn2Cc1ccccc1 [화합물 16h, 1-벤질-4-알릴아미노-6-(메틸티오)피라졸로[3,4-d]피리미딘] — higher, 66 ± 9%
- CSc1nc(N(CCO)CCO)c2cnn(Cc3ccccc3)c2n1 [화합물 16i, 1-벤질-4-비스(1-하이드록시에틸)아미노-6-(메틸티오)피라졸로[3,4-d]피리미딘] — higher, 79 ± 3%
- CSc1nc(NC(C)(C)CO)c2cnn(Cc3ccccc3)c2n1 [화합물 16j, 1-벤질-4-[(1-하이드록시-2,2-다이메틸)에틸]아미노-6-(메틸티오)피라졸로[3,4-d]피리미딘] — within error, 48 ± 8%
- CCSc1nc(SC)nc2c1cnn2Cc1ccccc1 [화합물 16l, 1-벤질-4-(에틸티오)-6-(메틸티오)-1H-피라졸로[3,4-d]피리미딘] — higher, 48 ± 5.1%
- CCCCSc1nc(SC)nc2c1cnn2Cc1ccccc1 [화합물 16m, 1-벤질-4-(뷰틸티오)-6-(메틸티오)-1H-피라졸로[3,4-d]피리미딘] — higher, 58 ± 1.9%
- CSc1nc(SCC(C)C)c2cnn(Cc3ccccc3)c2n1 [화합물 16n, 1-벤질-4-(이소부틸티오)-6-(메틸티오)-1H-피라졸로[3,4-d]피리미딘] — higher, 56 ± 4.5%
- CSc1nc(SCCCCl)c2cnn(Cc3ccccc3)c2n1 [화합물 16o, 4-(3-클로로프로필티오)-1-벤질-6-(메틸티오)-1H-피라졸로[3,4-d]피리미딘] — within error, 43 ± 4.6%
- CSc1nc(Sc2ccc(C)cc2)c2cnn(Cc3ccccc3)c2n1 [화합물 16p, 4-(p-톨릴티오)-1-벤질-6-(메틸티오)-1H-피라졸로[3,4-d]피리미딘] — lower, 34 ± 1.7%
- COc1ccc(Sc2nc(SC)nc3c2cnn3Cc2ccccc2)cc1 [화합물 16q, 4-(4-메톡시페닐티오)-1-벤질-6-(메틸티오)-1H-피라졸로[3,4-d]피리미딘] — within error, 40 ± 1.8%
- CSc1nc(Sc2ccc(Cl)cc2)c2cnn(Cc3ccccc3)c2n1 [화합물 16r, 4-(4-클로로페닐티오)-1-벤질-6-(메틸티오)-1H-피라졸로[3,4-d]피리미딘] — lower, 20 ± 1.9%
- CSc1nc(SCc2ccccc2Cl)c2cnn(Cc3ccccc3)c2n1 [화합물 16s, 4-(2-클로로벤질티오)-1-벤질-6-(메틸티오)-1H-피라졸로[3,4-d]피리미딘] — higher, 66 ± 2.6%
- CSc1nc(Sc2c(Cl)cccc2Cl)c2cnn(Cc3ccccc3)c2n1 [화합물 16t, 4-(2,6-다이클로로페닐티오)-1-벤질-6-(메틸티오)-1H-피라졸로[3,4-d]피리미딘] — within error, 43 ± 1.2%
- CSc1nc(Sc2ccc(F)cc2)c2cnn(Cc3ccccc3)c2n1 [화합물 16u, 4-(4-플루오로페닐티오)-1-벤질-6-(메틸티오)-1H-피라졸로[3,4-d]피리미딘] — lower, 28 ± 1.8%
- CCCCCCCCSc1nc(SC)nc2c1cnn2Cc1ccccc1 [화합물 16v, 1-벤질-6-(메틸티오)-4-(옥틸티오)-1H-피라졸로[3,4-d]피리미딘] — higher, 95 ± 4%
- CSc1nc(NC(C)c2ccccc2)c2cnn(Cc3ccccc3)c2n1 (stereo not drawn) [화합물 16x, 1-벤질-6-(메틸티오)-N-(1-페닐에틸)-1H-피라졸로[3,4-d]피리미딘-4-아민] — lower, 34 ± 1.4%
- CSc1nc(NC(c2ccccc2)c2ccc(Cl)cc2)c2cnn(Cc3ccccc3)c2n1 (stereo not drawn) [화합물 16y, 1-벤질-N-((4-클로로페닐)(페닐)메틸)-6-(메틸티오)-1H-피라졸로[3,4-d]피리미딘-4-아민] — the same, 41 ± 0.9%
- CSc1nc(NC(C)C2CCCCC2)c2cnn(Cc3ccccc3)c2n1 (stereo not drawn) [화합물 16z, 1-벤질-N-(1-사이클로헥실에틸)-6-(메틸티오)-1H-피라졸로[3,4-d]피리미딘-4-아민] — lower, 26 ± 2.4%
- CSc1nc(NC(C)c2ccc(C)cc2)c2cnn(Cc3ccccc3)c2n1 (stereo not drawn) [화합물 16za, 1-벤질-6-(메틸티오)-N-(1-p-톨릴에틸)-1H-피라졸로[3,4-d]피리미딘-4-아민] — within error, 40 ± 1.3%
- COc1ccc([C@H](C)Nc2nc(SC)nc3c2cnn3Cc2ccccc2)cc1 [화합물 16zb, 1-벤질-N-((S)-1-(4-메톡시페닐)에틸)-6-(메틸티오)-1H-피라졸로[3,4-d]피리미딘-4-아민] — higher, 49 ± 2.4%
- COc1ccccc1CNc1nc(SC)nc2c1cnn2Cc1ccccc1 [화합물 16zc, N-(2-메톡시벤질)-1-벤질-6-(메틸티오)-1H-피라졸로[3,4-d]피리미딘-4-아민] — higher, 50 ± 1.1%
- CSc1nc(NCc2ccc(Cl)cc2)c2cnn(Cc3ccccc3)c2n1 [화합물 16zd, N-(4-클로로벤질)-1-벤질-6-(메틸티오)-1H-피라졸로[3,4-d]피리미딘-4-아민] — higher, 46 ± 1.9%
- CSc1nc(NCc2ccc(C)cc2)c2cnn(Cc3ccccc3)c2n1 [화합물 16ze, N-(4-메틸벤질)-1-벤질-6-(메틸티오)-1H-피라졸로[3,4-d]피리미딘-4-아민] — higher, 51 ± 3.4%
- COc1cccc(CNc2nc(SC)nc3c2cnn3Cc2ccccc2)c1 [화합물 16zf, N-(3-메톡시벤질)-1-벤질-6-(메틸티오)-1H-피라졸로[3,4-d]피리미딘-4-아민] — higher, 49 ± 0.6%
- CCCCNc1nc(SC)nc2c1cnn2Cc1ccccc1 [화합물 16zg, 1-벤질-N-뷰틸-6-(메틸티오)-1H-피라졸로[3,4-d]피리미딘-4-아민] — higher, 55 ± 1.9%
- CSc1nc(NCc2ccccn2)c2cnn(Cc3ccccc3)c2n1 [화합물 16zh, 1-벤질-6-(메틸티오)-N-((피리딘-2-일)메틸)-1H-피라졸로[3,4-d]피리미딘-4-아민] — higher, 53 ± 7.2%
- CSc1nc(NCc2ccccc2Cl)c2cnn(Cc3ccccc3)c2n1 [화합물 16zi, N-(2-클로로벤질)-1-벤질-6-(메틸티오)-1H-피라졸로[3,4-d]피리미딘-4-아민] — within error, 39 ± 3.1%
- CSc1nc(NCc2ccccc2)c2cnn(C(C)(C)C)c2n1 [화합물 17a, 1-t-뷰틸-4-벤질아미노-6-(메틸티오)피라졸로[3,4-d]피리미딘] — higher, 73 ± 3%
- CSc1nc(N[C@H](C)c2ccccc2)c2cnn(C(C)(C)C)c2n1 [화합물 17b, (R)-1-t-뷰틸-4-(1-페닐에틸)아미노-6-(메틸티오)피라졸로[3,4-d]피리미딘] — higher, 61 ± 1%
- CSc1nc(NCc2ccc(F)cc2)c2cnn(C(C)(C)C)c2n1 [화합물 17c, 1-t-뷰틸-4-(4-플루오로벤질)아미노-6-(메틸티오)피라졸로[3,4-d]피리미딘] — higher, 59 ± 2%
